This test addresses T1, serotonin 5-HT1A receptor (Rattus norvegicus, UniProt P19327).
T1 sequence (P19327 1-422): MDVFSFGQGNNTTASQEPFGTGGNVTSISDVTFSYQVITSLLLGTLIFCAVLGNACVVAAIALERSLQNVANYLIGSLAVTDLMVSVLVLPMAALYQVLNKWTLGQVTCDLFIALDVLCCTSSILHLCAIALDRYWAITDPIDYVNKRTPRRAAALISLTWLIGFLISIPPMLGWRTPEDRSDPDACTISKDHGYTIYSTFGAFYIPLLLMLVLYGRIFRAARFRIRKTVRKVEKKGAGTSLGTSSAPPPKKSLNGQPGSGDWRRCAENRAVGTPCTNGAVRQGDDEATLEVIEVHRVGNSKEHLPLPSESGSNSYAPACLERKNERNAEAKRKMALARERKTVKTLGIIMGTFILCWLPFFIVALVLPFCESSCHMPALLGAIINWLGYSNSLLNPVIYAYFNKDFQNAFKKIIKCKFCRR
Briefly: [3H]WAY-100635 radioligand displacement in rat brain homogenates. Format: binding.

The structures appear in SMILES notation.

As to `COc1ccccc1N1CCN(CCN(c2ccccn2)C(=O)[C@H]2CC[C@H](CF)CC2)CC1` [trans-mefway, N-{2-[4-(2'-methoxyphenyl)piperazinyl]ethyl}-N-(2-pyridyl)-N-(cis/trans-4'-[^18F]fluoromethylcyclohexane)-carboxamide], the Ki worked out at 0.84 nM.

The values above are taken from publication PMC3744326 (Synapse (New York, N.Y.), 2013).
